# PubChem BioAssay AID180 (DTP/NCI, 2004)
# Where “and” joins values, the source holds several entries; their conditions need not be identical. Equal values may be shown once.
# Test system: BDF1 mice, Adenocarcinoma 755 s.c., tumor weight T/C
# Experiment: NCI In Vivo Anticancer Drug Screen. Data for tumor model Adenocarcinoma 755 (subcutaneous) in B6D2F1 (BDF1) mice
# Details: endpoint: mean tumor weight, higher = larger tumour
# How it was run: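 Values express treated (T) relative to vehicle-dosed control (C) animals, based on survival or tumour size measured after compound treatment of mice bearing a transplanted tumour.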
# [1] = dose: 3.1 mg/kg/injection, schedule: Q01DX011 (ip), vehicle: methylcellulose (MC)
# [2] = dose: 12.5 mg/kg/injection, schedule: Q01DX011 (ip), vehicle: methylcellulose (MC)
# [3] = dose: 25.0 mg/kg/injection, schedule: Q01DX011 (ip), vehicle: carboxymethylcellulose (CMC)
# [4] = dose: 30.0 mg/kg/injection, schedule: Q01DX011 (ip), vehicle: carboxymethylcellulose (CMC)
smiles,measurement,setting,value
Cn1c(N)nc2nc[nH]c2c1=S,T/C,"dose: 4.0 mg/kg/injection, schedule: Q01DX011 (oral), vehicle: carboxymethylcellulose (CMC)",114 % of control
same,T/C,"dose: 4.0 mg/kg/injection, schedule: Q01DX011 (oral), vehicle: saline",91 % of control
same,T/C,"dose: 5.0 mg/kg/injection, schedule: Q01DX011 (ip), vehicle: methylcellulose (MC)",4 % of control
same,T/C,"dose: 6.0 mg/kg/injection, schedule: Q01DX011 (ip), vehicle: methylcellulose (MC)",5 % of control
same,T/C,"dose: 7.0 mg/kg/injection, schedule: Q01DX011 (ip), vehicle: methylcellulose (MC)",4 % of control
same,T/C,"dose: 8.0 mg/kg/injection, schedule: Q01DX011 (oral), vehicle: carboxymethylcellulose (CMC)",112 % of control
same,T/C,"dose: 8.0 mg/kg/injection, schedule: Q01DX011 (oral), vehicle: saline",92 % of control
same,T/C,"dose: 16.0 mg/kg/injection, schedule: Q01DX011 (oral), vehicle: carboxymethylcellulose (CMC)",119 % of control
same,T/C,"dose: 16.0 mg/kg/injection, schedule: Q01DX011 (oral), vehicle: saline",80 % of control
same,T/C,"dose: 32.0 mg/kg/injection, schedule: Q01DX011 (oral), vehicle: carboxymethylcellulose (CMC)",203 % of control
same,T/C,"dose: 32.0 mg/kg/injection, schedule: Q01DX011 (oral), vehicle: saline",86 % of control
same,T/C,"dose: 64.0 mg/kg/injection, schedule: Q01DX011 (oral), vehicle: carboxymethylcellulose (CMC)",151 % of control
same,T/C,"dose: 64.0 mg/kg/injection, schedule: Q01DX011 (oral), vehicle: saline",120 % of control
same,T/C,"dose: 500.0 mg/kg/injection, schedule: Q01DX011 (oral), vehicle: carboxymethylcellulose (CMC)",85 % of control
same,T/C,"dose: 750.0 mg/kg/injection, schedule: Q01DX011 (oral), vehicle: carboxymethylcellulose (CMC)",90 % of control
same,T/C,"dose: 310.0 micrograms/kg/injection, schedule: Q01DX011 (ip), vehicle: methylcellulose (MC)",32 % of control
same,T/C,"dose: 625.0 micrograms/kg/injection, schedule: Q01DX011 (ip), vehicle: methylcellulose (MC)",64 % of control
same,T/C,"dose: 1000.0 micrograms/kg/injection, schedule: Q01DX011 (ip), vehicle: methylcellulose (MC)",3 % of control
same,T/C,"dose: 1250.0 micrograms/kg/injection, schedule: Q01DX011 (ip), vehicle: methylcellulose (MC)",18 % of control
same,T/C,"dose: 2000.0 micrograms/kg/injection, schedule: Q01DX011 (ip), vehicle: methylcellulose (MC)",3 % of control
same,T/C,"dose: 2500.0 micrograms/kg/injection, schedule: Q01DX011 (ip), vehicle: methylcellulose (MC)",4 % of control
same,T/C,"dose: 5000.0 micrograms/kg/injection, schedule: Q01DX011 (ip), vehicle: methylcellulose (MC)",4 % of control
same,T/C,"dose: 7500.0 micrograms/kg/injection, schedule: Q01DX011 (ip), vehicle: methylcellulose (MC)",2 % of control
CC(C)Sc1nc(N)nc2nc[nH]c12,T/C,"dose: 1.0 mg/kg/injection, schedule: Q01DX011 (ip), vehicle: saline",41 % of control
same,T/C,"dose: 1.6 mg/kg/injection, schedule: Q01DX011 (ip), vehicle: methylcellulose (MC)",16 % of control
same,T/C,"dose: 3.0 mg/kg/injection, schedule: Q01DX011 (ip), vehicle: saline",41 % of control
same,T/C,[1],11 % of control
same,T/C,"dose: 6.0 mg/kg/injection, schedule: Q01DX011 (ip), vehicle: saline",30 % of control
same,T/C,"dose: 6.25 mg/kg/injection, schedule: Q01DX011 (ip), vehicle: methylcellulose (MC)",2 % of control
same,T/C,"dose: 12.0 mg/kg/injection, schedule: Q01DX011 (ip), vehicle: saline",37 % of control
same,T/C,[2],1 % of control
same,T/C,"dose: 25.0 mg/kg/injection, schedule: Q01DX011 (ip), vehicle: saline",17 % of control
same,T/C,"dose: 50.0 mg/kg/injection, schedule: Q01DX011 (ip), vehicle: saline",4 % of control
same,T/C,"dose: 100.0 mg/kg/injection, schedule: Q01DX011 (ip), vehicle: saline",7 % of control
same,T/C,"dose: 125.0 micrograms/kg/injection, schedule: Q01DX011 (ip), vehicle: saline",76 % of control
same,T/C,"dose: 250.0 micrograms/kg/injection, schedule: Q01DX011 (ip), vehicle: saline",77 % of control
same,T/C,"dose: 500.0 micrograms/kg/injection, schedule: Q01DX011 (ip), vehicle: saline",52 % of control
same,T/C,"dose: 1000.0 micrograms/kg/injection, schedule: Q01DX011 (ip), vehicle: saline",80 % of control
Clc1ncnc2c1ncn2C1CCCO1 (configuration not stated),T/C,"dose: 2.34 mg/kg/injection, schedule: Q01DX011 (ip), vehicle: methylcellulose (MC)",50 % of control
same,T/C,"dose: 4.68 mg/kg/injection, schedule: Q01DX011 (ip), vehicle: methylcellulose (MC)",68 % of control
same,T/C,"dose: 9.37 mg/kg/injection, schedule: Q01DX011 (ip), vehicle: methylcellulose (MC)",69 % of control
same,T/C,"dose: 18.75 mg/kg/injection, schedule: Q01DX011 (ip), vehicle: methylcellulose (MC)",41 % of control
same,T/C,"dose: 37.5 mg/kg/injection, schedule: Q01DX011 (ip), vehicle: methylcellulose (MC)",9 % of control
same,T/C,"dose: 75.0 mg/kg/injection, schedule: Q01DX011 (ip), vehicle: methylcellulose (MC)",1 % of control
C/C(=N\NC(=O)c1ccncc1)c1ccccc1Cl,T/C,"dose: 30.0 mg/kg/injection, schedule: Q01DX011 (ip), vehicle: methylcellulose (MC)",56 % of control
same,T/C,"dose: 60.0 mg/kg/injection, schedule: Q01DX011 (ip), vehicle: methylcellulose (MC)",61 % of control
Nc1nc(SCc2cccc(Br)c2)c2ncn(C3OC(CO)C(O)C3O)c2n1 (configuration not stated),T/C,"dose: 1.5 mg/kg/injection, schedule: Q01DX011 (ip), vehicle: methylcellulose (MC)",84 % of control
same,T/C,[1],62 % of control
same,T/C,"dose: 6.2 mg/kg/injection, schedule: Q01DX011 (ip), vehicle: methylcellulose (MC)",12 % of control and 24 % of control
same,T/C,[2],1 % of control
same,T/C,"dose: 25.0 mg/kg/injection, schedule: Q01DX011 (ip), vehicle: methylcellulose (MC)",2 % of control
CC1CC(C)(O)CC(C(O)CC2CC(=O)NC(=O)C2)C1=O (configuration not stated),T/C,"dose: 0.05 mg/kg/injection, schedule: Q01DX011 (ip), vehicle: methylcellulose (MC)",71 % of control
same,T/C,"dose: 0.1 mg/kg/injection, schedule: Q01DX011 (ip), vehicle: alkali diluted with saline",62 % of control
same,T/C,"dose: 0.1 mg/kg/injection, schedule: Q01DX011 (ip), vehicle: methylcellulose (MC)",44 % of control
same,T/C,"dose: 0.2 mg/kg/injection, schedule: Q01DX011 (ip), vehicle: alkali diluted with saline",17 % of control
same,T/C,"dose: 0.2 mg/kg/injection, schedule: Q01DX011 (ip), vehicle: methylcellulose (MC)",32 % of control
C[C@]1(O)CC[C@H]2[C@@H]3CC[C@@H]4C[C@H](O)CC[C@]4(C)[C@@]3(F)[C@@H](O)C[C@@]21C,T/C,"dose: 25.0 mg/kg/injection, schedule: Q01DX011 (sc), vehicle: steriod suspending solution",73 % of control
same,T/C,"dose: 200.0 mg/kg/injection, schedule: Q01DX011 (sc), vehicle: steriod suspending solution",90 % of control
same,T/C,"dose: 400.0 mg/kg/injection, schedule: Q01DX011 (sc), vehicle: steriod suspending solution",87 % of control
[I][Hg][CH2][C@H]1CO[C@H]([CH2][Hg][I])CO1,T/C,"dose: 6.0 mg/kg/injection, schedule: Q01DX011 (ip), vehicle: carboxymethylcellulose (CMC)",95 % of control
same,T/C,"dose: 12.0 mg/kg/injection, schedule: Q01DX011 (ip), vehicle: carboxymethylcellulose (CMC)",46 % of control
same,T/C,[3],32 % of control and 33 % of control
same,T/C,"dose: 50.0 mg/kg/injection, schedule: Q01DX011 (ip), vehicle: carboxymethylcellulose (CMC)",21 % of control
ClCCN(CCCl)c1ccc(/C=C\c2ccnc3ccccc23)cc1,T/C,[4],65 % of control and 75 % of control
same,T/C,"dose: 115.0 mg/kg/injection, schedule: Q01DX011 (ip), vehicle: carboxymethylcellulose (CMC)",47 % of control and 69 % of control
same,T/C,"dose: 230.0 mg/kg/injection, schedule: Q01DX011 (ip), vehicle: carboxymethylcellulose (CMC)",71 % of control
COc1cc(C(=O)[O][Hg][CH2]C2CC(O)CC([CH2][Hg][O]C(=O)c3cc(OC)c(OC)c(OC)c3)O2)cc(OC)c1OC (configuration not stated),T/C,[3],61 % of control
CC(=O)OCC(=O)[C@@]1(O)CC[C@H]2[C@@H]3C[C@H](C)C4=CC(=O)CC[C@]4(C)[C@H]3[C@@H](O)C[C@@]21C,T/C,"dose: 2.75 mg/kg/injection, schedule: Q01DX011 (sc), vehicle: steriod suspending solution",73 % of control
same,T/C,"dose: 5.5 mg/kg/injection, schedule: Q01DX011 (sc), vehicle: steriod suspending solution",55 % of control and 71 % of control
same,T/C,"dose: 22.0 mg/kg/injection, schedule: Q01DX011 (sc), vehicle: water",19 % of control
same,T/C,"dose: 44.0 mg/kg/injection, schedule: Q01DX011 (sc), vehicle: steriod suspending solution",42 % of control
same,T/C,"dose: 44.0 mg/kg/injection, schedule: Q01DX011 (sc), vehicle: water",14 % of control and 20 % of control
same,T/C,"dose: 87.0 mg/kg/injection, schedule: Q01DX011 (sc), vehicle: steriod suspending solution",50 % of control
same,T/C,"dose: 87.5 mg/kg/injection, schedule: Q01DX011 (sc), vehicle: water",11 % of control and 15 % of control
same,T/C,"dose: 175.0 mg/kg/injection, schedule: Q01DX011 (sc), vehicle: steriod suspending solution",25 % of control
same,T/C,"dose: 175.0 mg/kg/injection, schedule: Q01DX011 (sc), vehicle: water",3 % of control and 4 % of control
Cn1cnc2c(Cl)nc(C(F)(F)F)nc21,T/C,[4],80 % of control
